{
  "source": "patent US7531195B2",
  "about": "“Schisandrin B preparation” (priority 2005, dated 2009)",
  "key": {"Hsp70": {"system": "Hsp70", "experiment": "Hsp70 expression in H9c2 cells (Western blot)", "format": "cell-based, rat", "details": "6.25 μM", "protocol": "H9c2 cells, a permanent cell line derived from cardiac myoblasts of rat embryo, have early been characterized as a suitable model of myocardial cells [Hescheler et al. 1991]. H9c2 cells were cultured as monolayers in Dulbecco's modified Eagle's medium (GIBCO BRL) supplemented with 10% (v/v) fetal bovine serum. The medium contained glucose (4.5 g/L) and glutamine (4.5 mM), supplemented with NaHCO3 (17 mM), penicillin (100 IU/ml), and streptomycin (100 μg/ml). Cells were grown under an atmosphere of 5% CO2 in air at 37° C. The medium was replaced by fresh medium every 2 or 3 days. A stock of cells was grown in a 75 cm culture flask and split before confluence at a subcultivation ratio of 1:10. Cells used for experiments were seeded at a density of 3.75×10^4 cells/well on a 12-well culture plate, and the cells were grown for 24 h to about 80% confluence prior to drug treatment.\nCultured H9c2 cells were treated with (−) Schisandrin B, (+) Schisandrin B or (±) Schisandrin B (dissolved in DMSO) at 6.25 μM (0.2% DMSO final concentration) for increasing periods of time. Control cells were given the vehicle (i.e. DMSO) only.\nImmediately following the drug treatment, the cells were washed twice with 0.5 ml cold PBS and treated with 100 μl lysis buffer containing 20 mM Tris HCl, 3 mM EGTA, 1% Triton X-100, 10% glycerol and 2 mM dithiothreitol, pH 7.5, with freshly added protease inhibitors (1 mM phenylmethylsulfonyl fluoride, 0.1 mM benzamide, 5 μg/ml leupeptin, 5 μg aproptinin and 5 μg/ml pepstain A). The mixture was incubated at 4° C. for 15 min with constant shaking. Then the cells were scraped off from the plate, and the extract was transferred to a microcentrifuge tube for centrifugation at 2,400 g for 3 min at 4° C. The resultant supernatant was used for Hsp analysis. Hsp25 and Hsp70 levels was estimated by Western blot analysis using specific antibodies (anti-Hsp25, catalog #SPA-801; anti-Hsp70, catalog #SPA-812) from StressGen (Vancouver, BC, Canada) following SDS-PAGE analysis cell lysates, using a separating gel of 10% acrylamide as described in Ip et. al. [2001]. Hsp25/27 and Hsp70 (human recombinant proteins from StressGen) and actin (bovine muscle from Sigma) were used as markers for reference. […] All immuno-blots were analyzed by densitometry, and the amounts (arbitrary units) of Hsp were normalized with reference to actin levels (arbitrary units) in the sample."}, "[1]": {"system": "mitochondria of brain, heart, liver and skeletal muscle", "experiment": "Mitochondrial antioxidant components in tissues of young adult and middle-aged rats", "format": "in vivo, rat", "details": "10 mg/kg/day x 15, range among tissues", "protocol": "Young adult (8-10 week-old) and middle-aged (12-14 month-old retired breeder) female Sprague-Dawley rats were maintained under a 12-h dark/light cycle at about 22° C. and allowed food and water ad libitum. Experimental protocols were approved by the Research Practice Committee at the Hong Kong University of Science & Technology, Hong Kong. Animals were randomly divided into groups, with 5 animals in each. In the treatment groups, rats were intragastrically administered with Sch B (dissolved/suspended in olive oil) at a daily dose of 10 mg/kg for 15 days. The daily dose is approximated to 1.14 mg/kg for humans after adjusting the inter-species difference in drug distribution in the body. Untreated control animals received olive oil only. Twenty-four hours after the last dosing, animals were sacrificed by decapitation and the whole brain, heart ventricular, liver and skeletal muscle (hind limb) tissues were excised and subjected to biochemical analysis. To investigate the effect of (−) Sch B on myocardial ischemia-reperfusion […] injury, rats were intragastrically administered with (−) Sch B at a daily dose of 10 mg/kg for 35 days. Untreated control animals received olive oil only. Twenty-four hours after the last dosing, hearts were isolated from pentobarbital-anesthetized animals and subjected to I-R experiment.\nMitochondrial pellets were prepared from tissue homogenates by centrifugation at 800×g at 4° C. for 30 min, with purity being determined by measuring the relative specific activities of succinate dehydrogenase and lactate dehydrogenase (LDH) in the supernatant and mitochondrial pellet. Mitochondrial pellets were then resuspended in 1 ml of the respective homogenizing buffer used for various tissues and constituted the mitochondrial fractions. The protein concentration of mitochondrial fractions was determined using a Bio-Rad protein assay kit.\nAliquots (200 μl) of mitochondrial fractions were used for measuring mitochondrial glutathione (GSH) and α-tocopherol (α-TOC) levels by an enzymatic method and HPLC method, respectively, using GSH and α-TOC as standards. Se-glutathione peroxidase (GPX) activity was measured. Mn-superoxide dismutase (SOD) activity was measured by monitoring the […] of cytochrome c caused by superoxide radicals generated from the xanthine oxidase-xanthine reaction."}},
  "data": [
    {"compound": "COc1cc2c(c(OC)c1OC)-c1c(cc3c(c1OC)OCO3)CC(C)C(C)C2", "note": "(single isomer, unassigned; (-)) [(−) Sch B, (−) Schisandrin B]", "values": [
      {"measurement": "Hsp 70 Level", "setting": "Hsp70; 0 h post-dosing (unpretreated control)", "value": "465 ± 14.3", "unit": "AU"},
      {"measurement": "Hsp 70 Level", "setting": "Hsp70; 8 h post-dosing", "value": "486 ± 16.7", "unit": "AU"},
      {"measurement": "Hsp 70 Level", "setting": "Hsp70; 16 h post-dosing", "value": "548 ± 6.67", "unit": "AU"},
      {"measurement": "Hsp 70 Level", "setting": "Hsp70; 24 h post-dosing", "value": "1058 ± 61", "unit": "AU"},
      {"measurement": "Hsp 70 Level, percent increase vs unpretreated control (0 h)", "setting": "Hsp70; 24 h post-dosing", "value": "(128%)"},
      {"measurement": "Hsp 70 Level", "setting": "Hsp70; 48 h post-dosing", "value": "556 ± 32.1", "unit": "AU"},
      {"measurement": "time of maximum stimulation of Hsp70 level", "setting": "Hsp70; post-dosing", "value": 24, "unit": "h"},
      {"measurement": "extent of stimulation of mitochondrial GPX activity", "setting": "[1]", "value": "21-41%"},
      {"measurement": "extent of stimulation of mitochondrial GSH level", "setting": "[1]", "value": "21-29%"},
      {"measurement": "extent of stimulation of mitochondrial SOD activity", "setting": "[1]", "value": "19-34%"},
      {"measurement": "extent of stimulation of mitochondrial α-TOC level", "setting": "[1]", "value": "19-34%"}
    ]}
  ]
}
